Literature values, collected in article PMC10017685 (Nature Communications, 2023).
Where two headings read alike, the source gives them in different places.

System: human erythrocytes
Parameters: method as in DBAASP
Conditions: cited from earlier work
[1] = toxicity class label 1 or 0, meaning of the labels not given, DBAASP HC50 data, human erythrocytes, ref DBAASP

## GIWKTIKSMGKVFAGAIKQNL [DBAASP_705]
[1]
  Class (dedicated toxicity dataset used for toxicity classifier evaluation): 0

## GLLKRIKILL [DBAASP_3144]
[1]
  Class (dedicated toxicity dataset used for toxicity classifier evaluation): 0

## KALWKTMLKKLGTMAL [DBAASP_10105]
[1]
  Class (dedicated toxicity dataset used for toxicity classifier evaluation): 0

## SAVWRRWRRFWLRKRRKR [DBAASP_9990]
[1]
  Class (dedicated toxicity dataset used for toxicity classifier evaluation): 0

## GWGSFFKKAAHVGKHVGKAALTHYL [DBAASP_1004]
[1]
  Class (dedicated toxicity dataset used for toxicity classifier evaluation): 0

## GILSSLWKKLKKWIAK [DBAASP_8918]
  Class (dedicated toxicity dataset used for toxicity classifier evaluation): 0

## FWGFLGKLAMKAVPSLIGGNKSSSK [DBAASP_8439]
[1]
  Class (dedicated toxicity dataset used for toxicity classifier evaluation): 0

## GIGKHVGKALKGLKGLLKGLGEC [DBAASP_6804]
[1]
  Class (dedicated toxicity dataset used for toxicity classifier evaluation): 0

## GFLGSLLKTGLKVGSNLL [DBAASP_2293]
[1]
  Class (dedicated toxicity dataset used for toxicity classifier evaluation): 0

## GIGKHVGKALKGLKGLLKGLGES [DBAASP_3359]
[1]
  Class (dedicated toxicity dataset used for toxicity classifier evaluation): 0

## FLPFLLSALPKVFCFFSKKC [DBAASP_6702]
[1]
  Class (dedicated toxicity dataset used for toxicity classifier evaluation): 1

## GLLGKLLKIAAKVGSNLL [DBAASP_4922]
[1]
  Class (dedicated toxicity dataset used for toxicity classifier evaluation): 1

## ALFKTMLKKLGTMAL [DBAASP_10098]
[1]
  Class (dedicated toxicity dataset used for toxicity classifier evaluation): 0

## ALWKTMLKKLGTMA [DBAASP_10092]
[1]
  Class (dedicated toxicity dataset used for toxicity classifier evaluation): 0

## VKRFKKFFRKLKKSV [DBAASP_4328]
[1]
  Class (dedicated toxicity dataset used for toxicity classifier evaluation): 0

## RWFKIQLQIRRWKNKK [DBAASP_8805]
[1]
  Class (dedicated toxicity dataset used for toxicity classifier evaluation): 0

## FLPILASLAAKFGPKLFSLVTKKS [DBAASP_4418]
[1]
  Class (dedicated toxicity dataset used for toxicity classifier evaluation): 0

## FIHHIIGGLFSVGKHIHSLIHRRRR [DBAASP_17379]
[1]
  Class (dedicated toxicity dataset used for toxicity classifier evaluation): 1

## WWWLRRIR [DBAASP_10635]
[1]
  Class (dedicated toxicity dataset used for toxicity classifier evaluation): 0

## GIMISLMKKLAAHIAK [DBAASP_8898]
[1]
  Class (dedicated toxicity dataset used for toxicity classifier evaluation): 0

## HWRRFWHR [DBAASP_12822]
[1]
  Class (dedicated toxicity dataset used for toxicity classifier evaluation): 0

## GLLKFIKTLL [DBAASP_3138]
[1]
  Class (dedicated toxicity dataset used for toxicity classifier evaluation): 0

## FFHHIFRGIVHVGKKIHRLVTG [DBAASP_9986]
[1]
  Class (dedicated toxicity dataset used for toxicity classifier evaluation): 0

## FPVTWGWWKWWKG [DBAASP_9714]
[1]
  Class (dedicated toxicity dataset used for toxicity classifier evaluation): 0

## SAVWRHWRRFWLRKHRKH [DBAASP_9988]
[1]
  Class (dedicated toxicity dataset used for toxicity classifier evaluation): 0

## GLKALKKVFKGIHKAIKLINKHVK [DBAASP_6932]
[1]
  Class (dedicated toxicity dataset used for toxicity classifier evaluation): 0

## KLLGPLLKIAAKVGSNLL [DBAASP_4921]
[1]
  Class (dedicated toxicity dataset used for toxicity classifier evaluation): 0

## FWSTLLSIGKSLL [DBAASP_18163]
[1]
  Class (dedicated toxicity dataset used for toxicity classifier evaluation): 1

## GLLGLLGSVVSHVVPAIVGHF [DBAASP_2298]
[1]
  Class (dedicated toxicity dataset used for toxicity classifier evaluation): 1

## GLKALKKVFQGIHKAIKLINNHVQ [DBAASP_6928]
[1]
  Class (dedicated toxicity dataset used for toxicity classifier evaluation): 0

## FLPFVGNLLKGLL [DBAASP_1881]
[1]
  Class (dedicated toxicity dataset used for toxicity classifier evaluation): 0

## IAGKIAKIAGKIAKIAGKIAK [DBAASP_14998]
  Class (dedicated toxicity dataset used for toxicity classifier evaluation): 0

## KLGFENFLVKALKTVMHVPTSPLL [DBAASP_5711]
[1]
  Class (dedicated toxicity dataset used for toxicity classifier evaluation): 0

## AIGSILGALAKGLPTLISWIKNR [DBAASP_2156]
[1]
  Class (dedicated toxicity dataset used for toxicity classifier evaluation): 1

## VKRWKKWWRKLKKSV [DBAASP_8773]
[1]
  Class (dedicated toxicity dataset used for toxicity classifier evaluation): 0

## GIMSSLMKKLAAIIAK [DBAASP_8899]
[1]
  Class (dedicated toxicity dataset used for toxicity classifier evaluation): 0

## RRGCFRVCYRGFCFQRCR [DBAASP_12233]
  Class (dedicated toxicity dataset used for toxicity classifier evaluation): 0

## FFRLLFHGVHHGGGYLNAA [DBAASP_1428]
[1]
  Class (dedicated toxicity dataset used for toxicity classifier evaluation): 0

## VRRFPWAWPFLRR [DBAASP_14266]
[1]
  Class (dedicated toxicity dataset used for toxicity classifier evaluation): 0

## IKKIIKKI [DBAASP_10843]
[1]
  Class (dedicated toxicity dataset used for toxicity classifier evaluation): 0

## KIAGKIAKIAGKIA [DBAASP_10129]
  Class (dedicated toxicity dataset used for toxicity classifier evaluation): 0

## ILPFKFPFFPFRR [DBAASP_4761]
[1]
  Class (dedicated toxicity dataset used for toxicity classifier evaluation): 0

## FLGALLKIGAKVLPSVLCGIFKKC [DBAASP_14203]
[1]
  Class (dedicated toxicity dataset used for toxicity classifier evaluation): 1

## GLNALKKVFKGIHEAIKLINNHVQ [DBAASP_6924]
[1]
  Class (dedicated toxicity dataset used for toxicity classifier evaluation): 0

## KWKVFKKAEKMIRNIRNKIVK [DBAASP_11863]
[1]
  Class (dedicated toxicity dataset used for toxicity classifier evaluation): 0

## HFLGKLVNLAKKIL [DBAASP_5018]
[1]
  Class (dedicated toxicity dataset used for toxicity classifier evaluation): 0

## FLPIVGKLLSGLF [DBAASP_1883]
[1]
  Class (dedicated toxicity dataset used for toxicity classifier evaluation): 0

## GRKKRRQRRRGALWKSLLKNVGKA [DBAASP_11807]
  Class (dedicated toxicity dataset used for toxicity classifier evaluation): 0

## GLFDKWAWWRWRR [DBAASP_10050]
[1]
  Class (dedicated toxicity dataset used for toxicity classifier evaluation): 0

## FLPIVGRLISGIL [DBAASP_13347]
[1]
  Class (dedicated toxicity dataset used for toxicity classifier evaluation): 0

## GIWSSLLKKLKKIIAK [DBAASP_8911]
[1]
  Class (dedicated toxicity dataset used for toxicity classifier evaluation): 0

## IPPFIKKVLTTVF [DBAASP_3483]
[1]
  Class (dedicated toxicity dataset used for toxicity classifier evaluation): 0

## GFRDVLKGAAKAFVKTVAGHIAN [DBAASP_2304]
[1]
  Class (dedicated toxicity dataset used for toxicity classifier evaluation): 0

## FPVTWPTKWWKS [DBAASP_9716]
[1]
  Class (dedicated toxicity dataset used for toxicity classifier evaluation): 0

## RRWCVYAYVRVRGVRVYAYVCW [DBAASP_13506]
[1]
  Class (dedicated toxicity dataset used for toxicity classifier evaluation): 0

## AKRHHGYKRKFH [DBAASP_732]
[1]
  Class (dedicated toxicity dataset used for toxicity classifier evaluation): 0

## FIGMIPGLIGGLISAIK [DBAASP_9867]
[1]
  Class (dedicated toxicity dataset used for toxicity classifier evaluation): 1

## RWFRIQLQIRRWRNRR [DBAASP_8807]
[1]
  Class (dedicated toxicity dataset used for toxicity classifier evaluation): 0

## SAVGRHGRRFGLRKHRKH [DBAASP_3348]
[1]
  Class (dedicated toxicity dataset used for toxicity classifier evaluation): 0

## FLGSIVGALASALPSLISKIRN [DBAASP_2209]
[1]
  Class (dedicated toxicity dataset used for toxicity classifier evaluation): 1

## GLLTRIKTLL [DBAASP_8596]
[1]
  Class (dedicated toxicity dataset used for toxicity classifier evaluation): 0

## GVSKILHSAGKFGKAFLGEIMKS [DBAASP_3776]
[1]
  Class (dedicated toxicity dataset used for toxicity classifier evaluation): 0

## FLSLIPHIVSGVAALANHL [DBAASP_12391]
[1]
  Class (dedicated toxicity dataset used for toxicity classifier evaluation): 0

## FLGALFKVASKLVPAAICSISKKC [DBAASP_15602]
[1]
  Class (dedicated toxicity dataset used for toxicity classifier evaluation): 0

## FPFLLSLIPSAISALKKL [DBAASP_18191]
[1]
  Class (dedicated toxicity dataset used for toxicity classifier evaluation): 0

## GILNTIKSIASKLKRKAK [DBAASP_5477]
[1]
  Class (dedicated toxicity dataset used for toxicity classifier evaluation): 0

## KKLFKKILKYLA [DBAASP_13463]
[1]
  Class (dedicated toxicity dataset used for toxicity classifier evaluation): 1

## FLPIIAGAAAKVVEKIFCAISKKC [DBAASP_4217]
[1]
  Class (dedicated toxicity dataset used for toxicity classifier evaluation): 1

## GLLKRIKTLL [DBAASP_7447]
[1]
  Class (dedicated toxicity dataset used for toxicity classifier evaluation): 1

## AVDLAKIANKVLSSLF [DBAASP_2207]
[1]
  Class (dedicated toxicity dataset used for toxicity classifier evaluation): 0

## GFWGKLFKLGLHGIGLLHLHL [DBAASP_999]
[1]
  Class (dedicated toxicity dataset used for toxicity classifier evaluation): 0

## WLRRIKAWLRRKRK [DBAASP_10627]
[1]
  Class (dedicated toxicity dataset used for toxicity classifier evaluation): 0

## GLLKKIKWLL [DBAASP_7430]
  Class (dedicated toxicity dataset used for toxicity classifier evaluation): 0

## WKKWWKKWWKKW [DBAASP_10848]
[1]
  Class (dedicated toxicity dataset used for toxicity classifier evaluation): 0

## GLLKIIKTLL [DBAASP_3137]
[1]
  Class (dedicated toxicity dataset used for toxicity classifier evaluation): 1

## GLKKIFKAGLGSLKKGIAAHVAS [DBAASP_4412]
[1]
  Class (dedicated toxicity dataset used for toxicity classifier evaluation): 0

## ALWKTMLKKLGT [DBAASP_10094]
[1]
  Class (dedicated toxicity dataset used for toxicity classifier evaluation): 0

## GLLKVIKTLL [DBAASP_3135]
[1]
  Class (dedicated toxicity dataset used for toxicity classifier evaluation): 0

## GLWSKIKDAAKTAGKAALGFVNEMV [DBAASP_14233]
[1]
  Class (dedicated toxicity dataset used for toxicity classifier evaluation): 0

## IKKILSKIKKLL [DBAASP_10745]
[1]
  Class (dedicated toxicity dataset used for toxicity classifier evaluation): 0

## GWKKWLRKGAKHLGQAAIKGLAS [DBAASP_1435]
[1]
  Class (dedicated toxicity dataset used for toxicity classifier evaluation): 0

## KRRVRWIIW [DBAASP_17712]
[1]
  Class (dedicated toxicity dataset used for toxicity classifier evaluation): 0

## KLLKKAGKLLKKAGKLLKKAG [DBAASP_13728]
[1]
  Class (dedicated toxicity dataset used for toxicity classifier evaluation): 0

## RIRIRWIIR [DBAASP_17706]
[1]
  Class (dedicated toxicity dataset used for toxicity classifier evaluation): 0

## GLLKRIKVLL [DBAASP_3142]
[1]
  Class (dedicated toxicity dataset used for toxicity classifier evaluation): 0

## RQIKIWFQNRRLKWKK [DBAASP_8797]
[1]
  Class (dedicated toxicity dataset used for toxicity classifier evaluation): 0

## ILGKLLSTAAKLLSKL [DBAASP_4366]
[1]
  Class (dedicated toxicity dataset used for toxicity classifier evaluation): 1

## VKRWKKFWRKWKKWW [DBAASP_8774]
[1]
  Class (dedicated toxicity dataset used for toxicity classifier evaluation): 0

## IKNAKVCVYAVCVSHK [DBAASP_12238]
[1]
  Class (dedicated toxicity dataset used for toxicity classifier evaluation): 0

## GIMSSLMKKLAKHIAK [DBAASP_8895]
[1]
  Class (dedicated toxicity dataset used for toxicity classifier evaluation): 0

## LWKIGKKIWRVLWNWR [DBAASP_17519]
[1]
  Class (dedicated toxicity dataset used for toxicity classifier evaluation): 1

## GMATKAGTAFGKAAKAIIGAAL [DBAASP_5720]
[1]
  Class (dedicated toxicity dataset used for toxicity classifier evaluation): 0

## HFLKTLVNLAKKIL [DBAASP_5017]
[1]
  Class (dedicated toxicity dataset used for toxicity classifier evaluation): 0

## LALKSGGWLRLFGLKDKKH [DBAASP_6706]
[1]
  Class (dedicated toxicity dataset used for toxicity classifier evaluation): 0

## SKVGRHGRRFGHRAHRKL [DBAASP_7662]
[1]
  Class (dedicated toxicity dataset used for toxicity classifier evaluation): 0

## FLGALIKGAIHGGRFIHGMIQNHH [DBAASP_1413]
[1]
  Class (dedicated toxicity dataset used for toxicity classifier evaluation): 0

## GMLKRIKTLL [DBAASP_8628]
[1]
  Class (dedicated toxicity dataset used for toxicity classifier evaluation): 0

## VRRFPWWYPFLRR [DBAASP_14261]
[1]
  Class (dedicated toxicity dataset used for toxicity classifier evaluation): 0

## FLPLIASLAANFVPKIFCKITKKC [DBAASP_3563]
[1]
  Class (dedicated toxicity dataset used for toxicity classifier evaluation): 0

## GLKLLLSLGLKLL [DBAASP_13848]
[1]
  Class (dedicated toxicity dataset used for toxicity classifier evaluation): 0
